Measurements published in patent US9908854B2, “Process for synthesizing ergothioneine and related compounds” (University of Cape Town, priority 2014, dated 2018).
Values joined by “and” are separate entries in the source; they are usually repeats but may differ in a detail not shown here. Equal entries are not always repeated. “Also recorded” adds a separate entry of the source.

Experiments:
[1] = tested on: crude M. smegmatis enzymes (ESH pathway, EgtE); test: Biotransformation of substrates to ergothioneine using crude M. smegmatis enzymes preparation (LC/MS); format: biochemical, Mycobacterium smegmatis; details: for concentration of ESH produced: 50 mM substrate, crude M. smegmatis cell free extract, 37° C., pH=7.4, 1 day, LCMS, control (endogenous ESH) 5.70 ng/ml
Description: FIG. 1 In vitro reconstitution of ESH; 100 μl reactions containing 20 mM Tris HCl pH=7.4, 20 mM NaCl, 0.2 Mm FeSO4.7H2O, 0.5 mM mercaptoethanol, 83 μl of crude M. smeg enzymes and 50 mM of either (a) S-(β-amino-β-carboxyethyl)ergothioneine sulfide (15); (b) S-(β-amino-β-carboxyethyl)ergothioneine sulfoxide (II) and (c) control. The crude enzyme reactions were incubated for 1 day at 37° C. followed by analysis by LC/MS.
The enzymatic and non-enzymatic PLP mediated synthesis of ESH from the synthetic sulfoxide (II) was compared. To this end, crude M. smegmatis cell free extracts were isolated from cultures grown and harvested at the late exponential phase, characterised by high enzymatic activity.^10
The crude enzymatic transformation of the ESH biosynthetic pathway precursors, including sulfide and sulfoxide variants were evaluated by the concomitant production of ESH in excess of basal levels as determined by LCMS. ESH precursor metabolites (β-amino-β-carboxyethyl)ergothioneine sulfide (15) and (β-amino-β-carboxyethyl)ergothioneine sulfoxide (II) were incubated with the crude cell free extract at 37° C., pH=7.4 for 1 day, and analyzed by LCMS.
The control reaction containing only the crude M. smegmatis cell free extract was also treated under the same conditions as the metabolites. The concentration of ESH thus obtained was 5.70 (±0.30) ng/ml, which was equated to that of endogenous ESH. This concentration was above the limit of detection (0.78 ng/ml), thus any increase in the concentration of ESH in the experiment above 1 ng/ml is considered significant enough to be ascribed to basal levels or biotransformation of the respective substrates by the crude endogenous enzymes of the ESH pathway. […]

[2] = Non enzymatic cleavage of C-S bond catalysed by PLP (LC/MS); details: 50 mM substrate plus 50 mM PLP, 20 mM Tris HCl pH=7.4, 37° C., 24 h
Description: FIG. 2 Non enzymatic production of ESH catalysed by PLP. TIC extracted for ESH and PLP using S-(β-amino-β-carboxyethyl)ergothioneine sulfide (15), S-(β-amino-β-carboxyethyl)ergothioneine sulfoxide (II) and S-(β-amino-β-carboxyethyl)ergothioneine sulfone (III).
FIG. 3 Non enzymatic production of ESH graph contain; 100 μl reactions containing 20 mM Tris HCl pH=7.4, 20 mM NaCl, 50 mM of either (1) sulfide (15) plus PLP, (2) sulfoxide (II) plus PLP, (3) sulfone (III) plus PLP respectively. Reaction time: 24 h.
Three sets of 100 μl reactions (1-3) containing 20 mM Tris HCl pH=7.4, and 50 mM of either (1) S-(β-amino-β-carboxyethyl)ergothioneine sulfide (15) and PLP (2) S-(β-amino-β-carboxyethyl)ergothioneine sulfoxide (II) and PLP or (3) S-(β-amino-βcarboxyethyl)ergothioneine sulfone (III) and PLP. The non-enzymatic reactions were incubated for 1 day at 37° C., followed by lyophilisation and subsequent reconstitution in LC buffer before analysis by LC/MS (FIGS. 2 and 3).

[3] = tested on: crude cell free extracts of Neurospora Crassa; details: synthetic sulfoxide of the 1974 prior synthesis; cited from earlier work

concentration of ESH produced [1] [ng/mL] | stability to Egt E enzyme mediated C-S cleavage [1] | SMILES | formation of ESH (non-enzymatic, PLP) [2] | cleavage to ESH by crude cell free extracts [3]
19.2 |  | C[N+](C)(C)[C@@H](Cc1c[nH]c(SC[C@H](N)C(=O)O)n1)C(=O)O [compound 15, S-(β-amino-β-carboxyethyl)ergothioneine sulfide] | 96.3 ng/mL and 96.34 ng/mL | 
22.6 |  | C[N+](C)(C)[C@@H](Cc1c[nH]c([S+]([O-])C[C@H](N)C(=O)O)n1)C(=O)O (stereo partly shown) [II] | no ESH at all; also recorded: did not produce ESH at all | extensively cleaved to ESH
 | stable | C[N+](C)(C)[C@@H](Cc1c[nH]c(S(=O)(=O)C[C@H](N)C(=O)O)n1)C(=O)O [III] | did not produce ESH at all | 
